Experimental data as given in patent publication US11064698B2, “Tetrazolinone compound and use thereof” (SUMITOMO CHEMICAL COMPANY, LIMITED, priority 2017, dated 2021).

How the values were obtained:
Format in all cases: in vivo
[1] = tested on: diamondback moth (Plutella xylostella); assay: Control test against diamondback moth (Plutella xylostella); conditions: 500 ppm active ingredient, sprayed on cabbage seedlings 20 mL/seedling, 2nd instar larvae, after 5 days, 25° C.
Protocol: Next, a Test Example is used to show efficacy of the Present compound against pests. In the following Test Example, the test was carried out at 25° C. Test Example 1 Control test against diamondback moth (Plutella xylostella) The Present compound was formulated according to the process described in the Formulation Example 6 to obtain a formulation, and water containing a spreader (0.03% by volume) was added thereto to prepare a diluted solution containing 500 ppm of the active ingredient. Cabbage (Brassicae oleracea) seedlings (on the developmental stage of the second to third true leaf) were planted in a container, and said diluted solution was sprayed into the leaves of the seedlings at a ratio of 20 mL/seedling. Thereafter, the stems and leaves of the seedlings were cut out, and the leaves were placed into a container lined with a filter paper. Approximately five the 2nd instar larvae of diamondback moth (Plutella xylostella) were released into the container. After 5 days, the number of the surviving insects was examined, and the controlling value was calculated by the following equation. […] Controlling value (%)={1−(Cb×Tai)/(Cai×Tb)}×100 wherein the symbols in the equation represent the following meanings. […]

[2] = tested on: Septoria leaf blotch (Septoria tritici) on wheat; assay: Preventive efficacy by foliage application against Septoria leaf blotch on wheat
[3] = tested on: net blotch (Pyrenophora teres) on barley; assay: Preventive efficacy by foliage application against net blotch on barley

| Structure (SMILES) | Controlling value (control effects) [1] | preventive efficacy against Septoria leaf blotch (Septoria tritici) [2] | preventive efficacy against net blotch (Pyrenophora teres) [3] |
| --- | --- | --- | --- |
| Cc1cccc(-n2nnn(C)c2=O)c1CN1C(=O)CCN1c1ccc(Cl)cc1 [Present compound] | 100% | – | – |
| Cc1cccc(-n2nnn(C)c2=O)c1COC1=NN(c2ccc(Cl)cc2)CC1 [compound represented by formula (4)] | – | showed preventive efficacy | showed preventive efficacy |
